Measurements: the NIST ThermoML archive (doi:10.1016/j.fluid.2006.03.015)

Assay: molar heat capacity at constant pressure
Settings: 101.33 kPa, Liquid

CCCC[n+]1ccccc1.O=S(=O)([N-]S(=O)(=O)C(F)(F)F)C(F)(F)F [1-butylpyridinium bis[(trifluoromethyl)sulfonyl]imide]
Settings	molar heat capacity at constant pressure [J/K/mol]
323.18 K, Large sample (1 g) DSC	592
328.15 K, modulated-temperature differential scanning calorimetry MDSC	604
328.18 K, Large sample (1 g) DSC	595
330.15 K, Small sample (50 mg) DSC	587
333.13 K, Large sample (1 g) DSC	596
333.15 K, modulated-temperature differential scanning calorimetry MDSC	607
335.15 K, Small sample (50 mg) DSC	590
338.14 K, Large sample (1 g) DSC	600
338.15 K, modulated-temperature differential scanning calorimetry MDSC	610
340.15 K, Small sample (50 mg) DSC	594
343.15 K, modulated-temperature differential scanning calorimetry MDSC	610
343.16 K, Large sample (1 g) DSC	603
345.15 K, Small sample (50 mg) DSC	596
348.12 K, Large sample (1 g) DSC	603
348.15 K, modulated-temperature differential scanning calorimetry MDSC	616
350.15 K, Small sample (50 mg) DSC	600
353.14 K, Large sample (1 g) DSC	604
353.15 K, modulated-temperature differential scanning calorimetry MDSC	615
355.15 K, Small sample (50 mg) DSC	603
358.15 K, Large sample (1 g) DSC	609
358.15 K, modulated-temperature differential scanning calorimetry MDSC	621
360.15 K, Small sample (50 mg) DSC	605
363.15 K, modulated-temperature differential scanning calorimetry MDSC	624
363.17 K, Large sample (1 g) DSC	614
365.15 K, Small sample (50 mg) DSC	607
368.15 K, modulated-temperature differential scanning calorimetry MDSC	623
368.17 K, Large sample (1 g) DSC	617
370.15 K, Small sample (50 mg) DSC	610
373.15 K, modulated-temperature differential scanning calorimetry MDSC	628
373.16 K, Large sample (1 g) DSC	617
375.15 K, Small sample (50 mg) DSC	613
378.13 K, Large sample (1 g) DSC	618
378.15 K, modulated-temperature differential scanning calorimetry MDSC	628
380.15 K, Small sample (50 mg) DSC	616
383.14 K, Large sample (1 g) DSC	621
383.15 K, modulated-temperature differential scanning calorimetry MDSC	631
385.15 K, Small sample (50 mg) DSC	619
388.14 K, Large sample (1 g) DSC	623
388.15 K, modulated-temperature differential scanning calorimetry MDSC	635
390.15 K, Small sample (50 mg) DSC	622
393.14 K, Large sample (1 g) DSC	626
393.15 K, modulated-temperature differential scanning calorimetry MDSC	636
395.15 K, Small sample (50 mg) DSC	624
398.13 K, Large sample (1 g) DSC	630
398.15 K, modulated-temperature differential scanning calorimetry MDSC	636
400.15 K, Small sample (50 mg) DSC	627
403.15 K, modulated-temperature differential scanning calorimetry MDSC	640
403.17 K, Large sample (1 g) DSC	631
405.15 K, Small sample (50 mg) DSC	630
408.14 K, Large sample (1 g) DSC	632
408.15 K, modulated-temperature differential scanning calorimetry MDSC	642
410.15 K, Small sample (50 mg) DSC	633
413.15 K, modulated-temperature differential scanning calorimetry MDSC	644
413.16 K, Large sample (1 g) DSC	633
415.15 K, Small sample (50 mg) DSC	635
418.13 K, Large sample (1 g) DSC	636
418.15 K, modulated-temperature differential scanning calorimetry MDSC	645
420.15 K, Small sample (50 mg) DSC	639
423.15 K, Large sample (1 g) DSC	635
425.15 K, Small sample (50 mg) DSC	641

CCn1cc[n+](C)c1.O=S(=O)([O-])C(F)(F)F [1-ethyl-3-methylimidazolium trifluoromethanesulfonate]
Settings	molar heat capacity at constant pressure [J/K/mol]
313.13 K, Large sample (1 g) DSC	384
315.15 K, Small sample (50 mg) DSC	386
318.13 K, Large sample (1 g) DSC	385
320.15 K, Small sample (50 mg) DSC	388
323.12 K, Large sample (1 g) DSC	386
325.15 K, Small sample (50 mg) DSC	390
328.15 K, modulated-temperature differential scanning calorimetry MDSC	392
328.16 K, Large sample (1 g) DSC	384
330.15 K, Small sample (50 mg) DSC	392
333.14 K, Large sample (1 g) DSC	383
333.15 K, modulated-temperature differential scanning calorimetry MDSC	395
335.15 K, Small sample (50 mg) DSC	394
338.15 K, modulated-temperature differential scanning calorimetry MDSC	397
338.17 K, Large sample (1 g) DSC	387
340.15 K, Small sample (50 mg) DSC	395
343.15 K, modulated-temperature differential scanning calorimetry MDSC	398
343.17 K, Large sample (1 g) DSC	391
345.15 K, Small sample (50 mg) DSC	396
348.13 K, Large sample (1 g) DSC	392
348.15 K, modulated-temperature differential scanning calorimetry MDSC	400
350.15 K, Small sample (50 mg) DSC	397
353.15 K, modulated-temperature differential scanning calorimetry MDSC	402
353.16 K, Large sample (1 g) DSC	393
355.15 K, Small sample (50 mg) DSC	399
358.12 K, Large sample (1 g) DSC	395
358.15 K, modulated-temperature differential scanning calorimetry MDSC	404
360.15 K, Small sample (50 mg) DSC	401
363.14 K, Large sample (1 g) DSC	398
363.15 K, modulated-temperature differential scanning calorimetry MDSC	405
365.15 K, Small sample (50 mg) DSC	403
368.14 K, Large sample (1 g) DSC	400
368.15 K, modulated-temperature differential scanning calorimetry MDSC	408
370.15 K, Small sample (50 mg) DSC	405
373.14 K, Large sample (1 g) DSC	401
373.15 K, modulated-temperature differential scanning calorimetry MDSC	409
375.15 K, Small sample (50 mg) DSC	406
378.13 K, Large sample (1 g) DSC	402
378.15 K, modulated-temperature differential scanning calorimetry MDSC	411
380.15 K, Small sample (50 mg) DSC	409
383.15 K, modulated-temperature differential scanning calorimetry MDSC	412
383.17 K, Large sample (1 g) DSC	405
385.15 K, Small sample (50 mg) DSC	410
388.15 K, Large sample (1 g) DSC	407
388.15 K, modulated-temperature differential scanning calorimetry MDSC	414
390.15 K, Small sample (50 mg) DSC	412
393.14 K, Large sample (1 g) DSC	410
393.15 K, modulated-temperature differential scanning calorimetry MDSC	416
395.15 K, Small sample (50 mg) DSC	414
398.15 K, modulated-temperature differential scanning calorimetry MDSC	416
398.17 K, Large sample (1 g) DSC	411
400.15 K, Small sample (50 mg) DSC	416
403.15 K, Large sample (1 g) DSC	414
403.15 K, modulated-temperature differential scanning calorimetry MDSC	418
405.15 K, Small sample (50 mg) DSC	418
408.12 K, Large sample (1 g) DSC	416
408.15 K, modulated-temperature differential scanning calorimetry MDSC	419
410.15 K, Small sample (50 mg) DSC	420
413.15 K, Large sample (1 g) DSC	419
413.15 K, modulated-temperature differential scanning calorimetry MDSC	421
415.15 K, Small sample (50 mg) DSC	422
418.17 K, Large sample (1 g) DSC	421
420.15 K, Small sample (50 mg) DSC	424
423.14 K, Large sample (1 g) DSC	422
425.15 K, Small sample (50 mg) DSC	425
